The text below walks through data of patent US20240174680A1, “CDK2 INHIBITORS AND METHODS OF USING THE SAME” (Cedilla Therapeutics, Inc., priority 2021, published 2024).

This assay deals with CDK2/Cyclin E1 (Homo sapiens, UniProt P24941). The assay can be described thus: CDK2/Cyclin E1 Caliper LabChip EZ Reader mobility shift assay. The format is biochemical. Further details: purchased Eurofins 14-475. Conditions: read-out: Caliper Assay (CDK2/CCNE1): IC50. An outline of the steps:
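Mobility-shift kinase assay: compound titrations preincubated 30 min with enzyme and ATP, reaction started with 5-FAM-QSPKKG-CONH2 peptide. Final 2.5 nM CDK2/Cyclin E1, 100 μM ATP, 1.5 μM peptide, HEPES pH 7.5; stopped with EDTA after 100 min. IC50 from four-parameter fit of normalized conversion ratio.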

Regarding `CNC(=O)[C@@H](NC(=O)[C@@H]1CN(C(=O)c2cnn(Cc3ccccc3)c2)CC12CN(C(=O)CC(C)(C)C)C2)[C@@H](C)OCc1ccccc1` [I-62A], the IC50 was 100 to 1000 nM. `CNC(=O)[C@@H](NC(=O)[C@@H]1CN(C(=O)c2cnn(Cc3ccccc3)c2)CC12CN(C(=O)N(C)C1CC1)C2)[C@@H](C)OCC1CCCCC1` [I-295]: the IC50 is 100 to 1000 nM. Then `CNC(=O)[C@@H](NC(=O)[C@@H]1CN(C(=O)c2cnn(Cc3ccccc3)c2)CC12CN(C(=O)[C@H]1CC1(C)C)C2)[C@@H](C)OCC1CCOCC1` [I-119A], with 100 to 1000 nM; and `C[C@@H](OCc1ccccc1)[C@H](NC(=O)C1CN(C(=O)c2cnn(Cc3ccccc3)c2)CC12CN(C(=O)[C@H]1CC1(C)C)C2)C(=O)O` (stereo partly drawn) [I-9, (2S,3R)-2-(6-(1-benzyl-1H-pyrazole-4-carbonyl)-2-((S)-2,2-dimethylcyclopropanecarbonyl)-2,6-diazaspiro[3.4]octane-8-carboxamido)-3-(benzyloxy)butanoic acid], with 100 to 1000 nM; and `CNC(=O)[C@@H](NC(=O)[C@H]1CN(C(=O)c2cnn(Cc3ccc(F)cc3)c2)CC12CN(C(=O)[C@H]1CC1(C)C)C2)[C@@H](C)OCC1CCC(F)(F)CC1` [I-167], with 100 to 1000 nM. `CNC(=O)[C@@H](NC(=O)[C@H]1CN(C(=O)c2cnn(CC3CCOCC3)c2)CC12CN(C(=O)[C@H]1CC1(C)C)C2)[C@@H](C)OCC1CCCCC1` [I-121B]: the IC50 was 1000 to 10000 nM. For the compound `Cc1ccc(CNC(=O)[C@@H]2CN(C(=O)c3cnn(Cc4ccccn4)c3)CC23CN(C(=O)[C@H]2CC2(C)C)C3)nn1` [I-417], the IC50 is more than 10000 nM. For `Cc1ccc(C(C)NC(=O)[C@@H]2CN(C(=O)c3cnn(Cc4ccccc4)c3)CC23CN(C(=O)[C@H]2CC2(C)C)C3)nn1` (stereo partly drawn) [I-366], the IC50 is 1000 to 10000 nM. In the case of `C[C@@H](OCC12CCC(CC1)OC2)[C@H](NC(=O)[C@@H]1CN(C(=O)c2cncs2)CC12CN(C(=O)[C@H]1CC1(C)C)C2)C(=O)N1CCCC2(COC2)C1` [I-453], the IC50 is not above 10 nM. `C[C@@H](OCC1CCC(F)(F)CC1)[C@H](NC(=O)[C@@H]1CN(C(=O)c2cncs2)CC12CN(C(=O)[C@H]1CC1(C)C)C2)C(=O)N1CCC(C(F)(F)F)CC1` [I-398]: the IC50 was not above 10 nM. In the case of `C[C@@H](OCC1CCCCC1)[C@H](NC(=O)[C@@H]1CN(C(=O)c2cnn(Cc3ccccc3)c2)CC12CN(C(=O)[C@H]1CC1(C)C)C2)C(=O)O` [I-477] it was not above 10 nM; in that of `C[C@@H](OCC1CCOCC1)[C@H](NC(=O)[C@@H]1CN(C(=O)c2cncs2)CC12CN(C(=O)[C@H]1CC1(C)C)C2)C(=O)N1CCC(n2ccnc2)CC1` [I-440], 10 to 100 nM; in that of `COC[C@H]1CCCN(C(=O)[C@@H](NC(=O)[C@@H]2CN(C(=O)c3cncs3)CC23CN(C(=O)[C@H]2CC2(C)C)C3)[C@@H](C)OCc2ccc(Cl)cc2F)C1` [I-317], not above 10 nM.

As for `CNC(=O)[C@@H](NC(=O)[C@@H]1CN(C(=O)c2cnc(C3CC3)s2)CC12CN(C(=O)[C@H]1CC1(C)C)C2)[C@@H](C)OCC1CCCCC1` [I-178A], the IC50 was in the range of 100 to 1000 nM. `CC1(C)C[C@@H]1C(=O)N1CC2(CN(C(=O)c3cnn(Cc4ccccc4)c3)C[C@H]2C(=O)N[C@@H]2CCN(c3ccccc3)C2)C1` [I-207]: the IC50 fell in the range of 1000 to 10000 nM. Regarding `CNC(=O)[C@@H](NC(=O)[C@@H]1CN(C(=O)c2cnn(Cc3ccccc3)c2)CC12CN(C(=O)C1(CCF)CC1)C2)[C@@H](C)OCc1ccccc1` [I-117A], the IC50 was in the range of 1000 to 10000 nM. For `C[C@@H](OCC1CCC(F)(F)CC1)[C@H](NC(=O)[C@@H]1CN(C(=O)c2cn[nH]c2)CC12CN(C(=O)[C@H]1CC1(C)C)C2)C(=O)N1CCOCC1` [I-301, (S)—N-((2S,3R)-3-((4,4-difluorocyclohexyl)methoxy)-1-morpholino-1-oxobutan-2-yl)-2-((S)-2,2-dimethylcyclopropane-1-carbonyl)-6-(1H-pyrazole-4-carbonyl)-2,6-diazaspiro[3.4]octane-8-carboxamide], the IC50 is not above 10 nM. Turning to `CNC(=O)[C@@H](NC(=O)[C@H]1CN(C(=O)c2cn[nH]c2)CC12CN(C(=O)[C@H]1CC1(C)C)C2)[C@@H](C)OCC1CCCCC1` [I-66B], the IC50 fell in the range of 1000 to 10000 nM. Then `C[C@@H](OCC1CCCCC1)[C@H](NC(=O)[C@@H]1CN(C(=O)c2cnn(Cc3ccccc3)c2)CC12CN(C(=O)[C@H]1CC1(C)C)C2)C(N)=O` [I-200], with not above 10 nM; and `Cc1noc([C@H](C)NC(=O)[C@@H]2CN(C(=O)c3cnn(Cc4ccccc4)c3)CC23CN(C(=O)[C@H]2CC2(C)C)C3)n1` [I-158A], with more than 10000 nM. On to `COC[C@H]1CCCN(C(=O)[C@@H](NC(=O)[C@@H]2CN(C(=O)c3cncs3)CC23CN(C(=O)[C@H]2CC2(C)C)C3)[C@@H](C)OC[C@H]2CC[C@H](NC(C)=O)CC2)C1` [I-434], for which the IC50 was in the range of 100 to 1000 nM. For `CNC(=O)[C@@H](NC(=O)[C@H]1CN(C(=O)c2cnn(Cc3ccccc3)c2)CC12CN(C(=O)CC1CCC1)C2)[C@@H](C)OCc1ccccc1` [I-27B], the IC50 is more than 10000 nM.

`C[C@@H]1C[C@H](C)CN(C(=O)[C@@H](NC(=O)C2CN(C(=O)c3cncs3)CC23CN(C(=O)[C@H]2CC2(C)C)C3)[C@@H](C)OCC2CCCCC2)C1` (stereo partly drawn) [I-172]: the IC50 is not above 10 nM. On to `C[C@@H](OCC12CCC(CC1)OC2)[C@H](NC(=O)[C@@H]1CN(C(=O)c2cncs2)CC12CN(C(=O)[C@H]1CC1(C)C)C2)C(=O)N1CCC(C)(C)CC1` [I-452], for which the IC50 was not above 10 nM. With `CC1(C)C[C@@H]1C(=O)N1CC2(CN(C(=O)c3cnn(Cc4ccccc4)c3)C[C@H]2C(=O)N2CCC[C@@H](OCC3CCCCC3)C2)C1` [I-254], the IC50 was more than 10000 nM. Regarding `CC1(C)C[C@@H]1C(=O)N1CC2(CN(C(=O)c3cnn(Cc4ccccc4)c3)C[C@H]2C(=O)Nc2ccc(Cc3ccccc3)nc2)C1` [I-139, (S)-6-(1-benzyl-1H-pyrazole-4-carbonyl)-N-(6-benzylpyridin-3-yl)-2-((S)-2,2-dimethylcyclopropane-1-carbonyl)-2,6-diazaspiro[3.4]octane-8-carboxamide], the IC50 is 100 to 1000 nM. As to `C[C@@H](OCC1CCCCC1)[C@H](NC(=O)C1CN(C(=O)c2cnn(Cc3ccccc3)c2)CC12CN(C(=O)[C@H]1CC1(C)C)C2)C(=O)N1CCOCC1` (stereo partly drawn) [I-152 mixture], the IC50 is not above 10 nM.

`CNC(=O)[C@@H](NC(=O)[C@@H]1CN(C(=O)c2cnn(Cc3ccccc3)c2)CC12CN(C(=O)C1(c3ccc(C(C)(C)C)cc3)CC1)C2)[C@@H](C)OCc1ccccc1` [I-80A]: the IC50 was more than 10000 nM. Turning to `COC[C@H]1CCCN(C(=O)[C@@H](NC(=O)[C@@H]2CN(C(=O)c3cncs3)CC23CN(C(=O)[C@H]2CC2(C)C)C3)[C@@H](C)OCc2ccc(F)cc2)C1` [I-318], the IC50 was not above 10 nM. Regarding `CNC(=O)C(NC(=O)[C@@H]1CN(C(=O)c2cnn(Cc3ccccc3)c2)CC12CN(C(=O)[C@H]1CC1(C)C)C2)c1ccc(C)nn1` (stereo partly drawn) [I-421], the IC50 was in the range of 1000 to 10000 nM.

Turning to `CC1(C)C[C@@H]1C(=O)N1CC2(CN(C(=O)c3cnn(Cc4ccccc4)c3)C[C@H]2C(=O)N2CCO[C@@H](Cc3ccccc3)C2)C1` [I-210], the IC50 was more than 10000 nM. As for `CNC(=O)[C@H](CO)NC(=O)C1CN(C(=O)c2cnn(Cc3ccccc3)c2)CC12CN(C(=O)[C@H]1CC1(C)C)C2` (stereo partly drawn) [I-260], the IC50 is more than 10000 nM. With `CC1(C)C[C@@H]1C(=O)N1CC2(CN(C(=O)c3cnn(Cc4ccccc4)c3)C[C@H]2C(=O)NC2CCN(C(=O)c3ccccc3)CC2)C1` [I-61A], the IC50 was in the range of 1000 to 10000 nM. For `CNC(=O)[C@@H](NC(=O)[C@@H]1CN(C(=O)c2cncs2)CC12CN(Cc1ccn[nH]1)C2)[C@@H](C)OCC12CCC(CC1)OC2` [I-351], the IC50 is more than 10000 nM.

Regarding `CNC(=O)[C@@H](NC(=O)[C@H]1CN(C(=O)c2cnc(C(C)(C)C)s2)CC12CN(C(=O)[C@H]1CC1(C)C)C2)[C@@H](C)OCC1CCCCC1` [I-229B], the IC50 was more than 10000 nM. In the case of `CNC(=O)[C@@H](NC(=O)[C@@H]1CN(C(=O)c2cncs2)CC12CN(C(=O)C(C)(C)C)C2)[C@@H](C)OCC1CCCCC1` [I-186A] it was 10 to 100 nM. In the case of `CNC(=O)C(NC(=O)[C@@H]1CN(C(=O)c2cncs2)CC12CN(C(=O)C(C)(C)C1CC1)C2)c1cccc(C2CCOCC2)n1` (stereo partly drawn) [I-338] it was more than 10000 nM.

For the compound `CNC(=O)[C@@H](NC(=O)[C@H]1CN(C(=O)c2scnc2C2CC2)CC12CN(C(=O)[C@H]1CC1(C)C)C2)[C@@H](C)OCC1CCCCC1` [I-185B], the IC50 was more than 10000 nM. In the case of `CNC(=O)[C@@H](NC(=O)[C@@H]1CN(C(=O)c2cncs2)CC12CN(C(=O)[C@H]1CC1(C)C)C2)[C@@H](C)OC1CCCCC1` [I-290], the IC50 lay in the range of 100 to 1000 nM.

With `CC1(C)C[C@@H]1C(=O)N1CC2(CN(C(=O)c3cnn(Cc4ccccc4)c3)C[C@@H]2C(=O)N[C@H]2CCc3cc(Cl)ccc32)C1` [I-120B], the IC50 was in the range of 1000 to 10000 nM. Then `Cc1cc(C(=O)N2CC(C(=O)N[C@H](C(=O)N3CCCCC3)[C@@H](C)OCC3CCCCC3)C3(C2)CN(C(=O)[C@H]2CC2(C)C)C3)sn1` (stereo partly drawn) [I-311], with not above 10 nM; and `CNC(=O)[C@@H](NC(=O)[C@H]1CN(C(=O)c2cnn(CC3CCOCC3)c2)CC12CN(C(=O)[C@H]1CC1(C)C)C2)[C@@H](C)OCc1ccccc1` [I-95B], with more than 10000 nM. Then `C[C@@H](OCC1CCC(F)(F)CC1)[C@@H](COC1CCC(F)(F)CC1)NC(=O)[C@@H]1CN(C(=O)c2cncs2)CC12CN(C(=O)[C@H]1CC1(C)C)C2` [I-315], with not above 10 nM.

Take `CNC(=O)[C@@H](NC(=O)[C@H]1CN(C(=O)c2cnn(Cc3ccccc3)c2)CC12CN(C(=O)C1(C)CC1)C2)[C@@H](C)OCc1ccccc1` [I-67B]: the IC50 is more than 10000 nM. Take `CNC(=O)[C@H](COCc1ccccc1)NC(=O)[C@@H]1CN(C(=O)c2cnn(Cc3ccccc3)c2)CC12CN(C(=O)C1(C(F)(F)F)CC1)C2` [I-113A, (S)-6-(1-benzyl-1H-pyrazole-4-carbonyl)-N—((S)-3-(benzyloxy)-1-(methylamino)-1-oxopropan-2-yl)-2-(1-(trifluoromethyl)cyclopropane-1-carbonyl)-2,6-diazaspiro[3.4]octane-8-carboxamide]: the IC50 was in the range of 1000 to 10000 nM.
